As a reminder, the EC50 is the concentration needed to bring the measured effect to its halfway point. What is called inhibition is the relative decrease from the control value, in per cent.

13 molecules from patent US20250197357A1, “PPARG INVERSE AGONISTS AND USES THEREOF” (Flare Therapeutics Inc., priority 2022, published 2025) can be followed below.

The target of experiment [1] is T1, PPARG/RXRA LBD heterodimer (Homo sapiens, UniProt P37231).
T1 construct: His-TEV-Q203-Y477; Uniprot ID P37231-2; made in house; host or cells: E. coli
T1 sequence (P37231 203-477 isoform P37231-2): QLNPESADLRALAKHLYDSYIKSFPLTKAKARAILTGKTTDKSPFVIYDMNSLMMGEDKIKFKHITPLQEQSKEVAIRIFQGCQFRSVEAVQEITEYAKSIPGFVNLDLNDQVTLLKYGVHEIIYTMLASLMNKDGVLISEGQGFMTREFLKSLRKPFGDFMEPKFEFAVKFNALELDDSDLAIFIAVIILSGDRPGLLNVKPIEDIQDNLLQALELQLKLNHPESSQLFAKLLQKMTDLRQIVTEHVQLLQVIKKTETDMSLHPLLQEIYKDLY
T1 sequence (P19793 228-462 partner limits assumed): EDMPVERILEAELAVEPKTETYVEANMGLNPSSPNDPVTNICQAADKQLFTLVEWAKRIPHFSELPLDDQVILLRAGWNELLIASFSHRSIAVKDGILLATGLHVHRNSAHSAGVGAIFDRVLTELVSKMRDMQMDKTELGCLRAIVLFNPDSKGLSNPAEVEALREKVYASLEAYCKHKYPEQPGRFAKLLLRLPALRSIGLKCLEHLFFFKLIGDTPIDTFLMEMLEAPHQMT
Description: PPARγ-MED1 blockade assay (TR-FRET). Conditions: MED1 LxxLL peptide, 80 nM Rosiglitazone, 3 hours. Format: binding. As for the experimental part:
Compound potency (IC50) and maximal extent of MED1 repulsion to PPARG were assessed a TR-FRET binding assay measuring association of a biotinylated MED1 LxxLL peptide (Biotin—[…]-amide) to PPARG/RXRA LBD heterodimer. Specifically, a 20 microliters of TR-FRET master mix consisting of 2 nM WT PPARG LBD (e. coli expressed, His-TEV-Q203-Y477; Uniprot ID P37231-2), 2 nM WT RXRA LBD (e. coli expressed, Flag-TEV-E228-T462; […]. Mixtures were incubated for 3 hours and read in an EnVision plate reader (Perkin Elmer) with Ex/Em 615/665. To determine the potency (IC50) and extent of MED1 repulsion, TR-FRET ratios were normalized to the average ratio of DMSO control wells (0%) and to the average minimum ratio for positive control compound (GW9662 (2-chloro-5-nitrobenzanilide); defined as 100%) in CDD Vault and analyzed using the Levenberg-Marquardt algorithm.

Experiment [2] deals with ANGPTL4, a PPARG target gene, in HT1197 (RXRA S427F mutation) cells. Description: Bladder cancer pharmacodynamic assay (HT1197 cell assay, qPCR of PPARG target genes). The following applies: Homo sapiens, 100 nM compound, 24 hours, relative to DMSO control. Format: cell-based. As for the experimental part:
5637 (PPARG amplified) and HT1197 (RXRA S427F mutation) cells were used for assessment of modulation of PPARG target genes using quantitative PCR. Cells were treated for 24 hours with PPARG inverse agonists prior to analysis of FABP4 (IDT, Cat: Hs.PT 58.20106818) and ANGPTL4 (IDT, Cat: Hs.PT 58.25480012) expression, with expression of the housekeeping gene TBP (IDT, Cat: Hs.PT 58v.39858774) used to normalize expression across samples. Quantitative PCR was performed using an ABI QuantStudio 7 Flex Reaction system. Data were analyzed and reported relative to DMSO control using the comparative Ct method (ΔΔCt).

Experiment [3] has as its target T2, PPARG/RXRA LBD heterodimer (Homo sapiens, UniProt P37231).
T2 construct: 2 nM WT PPARG LBD (e. coli expressed, His-TEV-Q203-Y477); fused on or other part: N-terminal His tag with TEV site on the PPARG LBD
Nature of the experiment: PPARγ-NCOR1 recruitment assay (TR-FRET). Format: binding. Conditions: NCOR1 ID2 peptide, 80 nM Rosiglitazone, 3 hours, read-out: PPARG - NCOR recruitment assay EC50. The procedure:
Compound potency (EC50) and maximal extent of NCOR1 recruitment to PPARG were assessed a TR-FRET binding assay measuring association of a biotinylated NCOR1 ID2 peptide (Biotin-[…]-amide) to PPARG/RXRA LBD heterodimer. Specifically, a 20 microliters of TR-FRET master mix consisting of 2 nM WT PPARG LBD (e. coli expressed, His-TEV-Q203-Y477; Uniprot ID P37231-2), 2 nM WT RXRA LBD or mutant S427F RXRA LBD (e. coli expressed, Flag-TEV-E228-T462; […]. Mixtures were incubated for 3 hours and read in an EnVision plate reader (Perkin Elmer) with Ex/Em 615/665. To determine the potency (EC50) and extent of NCOR1 recruitment, TR-FRET ratios were normalized to the average ratio of DMSO control wells (0%) and to the average maximum ratio for positive control compound (T0070907 (2-chloro-5-nitro-N-4-pyridinyl-benzamide); defined as 100%) in CDD Vault and analyzed using the Levenberg-Marquardt algorithm.
T2 sequence (O75376 2251-2273 limits assumed, one chain of several, further chain): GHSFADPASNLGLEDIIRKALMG
In general terms: TR-FRET usually uses a lanthanide donor and a delayed reading to cut background.

Bounds are passed on as bounds.

For the molecule `CS(=O)(=O)c1ccc(C#N)cc1C(=O)Nc1ccc2ccncc2c1` [Example 22, 5-cyano-N-(isoquinolin-7-yl)-2-(methylsulfonyl) benzamide], the EC50 in experiment [1] and in experiment [3] was more than 10000 nM throughout. Also, the inhibition at 0.1 µM in experiment [2] is 0%.
On to `CS(=O)(=O)c1ccc(C#N)cc1C(=O)Nc1cc(F)c(-c2ccc3c(c2)C(=O)NC3)c(F)c1` [Example 23, 5-cyano-N-(3,5-difluoro-4-(3-oxoisoindolin-5-yl)phenyl)-2-(methylsulfonyl) benzamide], for which the EC50 in experiment [1] and in experiment [3] was 10 to 100 nM throughout. The inhibition at 0.1 µM in experiment [2] is 19%.
Take `N#Cc1ccc(SC(F)(F)F)c(C(=O)Nc2ccnc(C(F)(F)F)c2)c1` [Example 24, 5-cyano-N-(2-(trifluorometh-yl)pyridin-4-yl)-2-((trifluorometh-yl)thio)benzamide]: the concentration giving a half-maximal response (EC50) in experiment [1] and in experiment [3] was 1000 to 10000 nM in each case. In experiment [2], the inhibition at 0.1 µM was 49%.
With `CS(=O)(=O)c1ccc(C#N)cc1C(=O)Nc1cc(F)cc(C#N)c1` [Example 25, 5-cyano-N-(3-cyano-5-fluorophenyl)-2-(methylsulfonyl) benzamide], the concentration for a half-maximal effect (EC50) in experiment [1] and in experiment [3] was 100 to 1000 nM in each case. Besides, the inhibition at 0.1 µM in experiment [2] worked out at 77%.
Consider `N#Cc1ccc(SC(F)(F)F)c(C(=O)Nc2cc(F)cc(Oc3ccc(Cl)cc3)c2)c1` [Example 26, N-(3-(4-chlorophenoxy)-5-fluorophenyl)-5-cyano-2-((trifluorometh-yl)thio)benzamide], for which the EC50 in experiment [1] and in experiment [3] was 100 to 1000 nM in each case. The inhibition at 0.1 µM in experiment [2] is -160%.
On to `CN1Cc2ccc(-c3c(F)cc(NC(=O)c4cc(C#N)ccc4SC(F)(F)F)cc3F)cc2C1=O` [Example 27, 5-cyano-N-(3,5-difluoro-4-(2-methyl-3-oxoisoindolin-5-yl)phenyl)-2-((trifluorometh-yl)thio)benzamide], for which the concentration for a half-maximal effect (EC50) in experiment [1] and in experiment [3] was 100 to 1000 nM throughout. Moreover, in experiment [2], the inhibition at 0.1 µM was found to be 79%.
In the case of `Cn1cc(-c2c(F)cc(NC(=O)c3cc(C#N)ccc3S(C)(=O)=O)cc2F)cn1` [Example 28, 5-cyano-N-(3,5-difluoro-4-(1-methyl-1H-pyrazol-4-yl)phenyl)-2-(methylsulfonyl) benzamide], the concentration for a half-maximal effect (EC50) in experiment [1] and in experiment [3] was 100 to 1000 nM each time. Further, the inhibition at 0.1 µM in experiment [2] was 72%.
In the case of `Cn1cc(-c2c(F)cc(NC(=O)c3cc(C#N)ccc3SC(F)(F)F)cc2F)cn1` [Example 29, 5-cyano-N-(3,5-difluoro-4-(1-methyl-1H-pyrazol-4-yl)phenyl)-2-((trifluorometh-yl)thio)benzamide], the EC50 in experiment [1] and in experiment [3] was 100 to 1000 nM in each case. Besides, in experiment [2], the inhibition at 0.1 µM amounted to 65%.
For `Cc1cc(NC(=O)c2cc(C#N)ccc2S(C)(=O)=O)cnc1C(F)(F)F` [Example 30, 5-cyano-N-(5-methyl-6-(trifluorometh-yl)pyridin-3-yl)-2-(methylsulfonyl) benzamide], the EC50 in experiment [1] and in experiment [3] was 1000 to 10000 nM in each case. In addition, in experiment [2], the inhibition at 0.1 µM turned out to be 42%.
With `CS(=O)(=O)c1cnc(C#N)cc1C(=O)Nc1cc(F)cc(F)c1` [Example 31, 2-cyano-N-(3,5-difluorophenyl)-5-(methylsulfonyl)isonicotinamide], the EC50 in experiment [1] and in experiment [3] was 10 to 100 nM in each case. Besides, the inhibition at 0.1 µM in experiment [2] is 72%.
On to `CS(=O)(=O)c1cnc(C#N)cc1C(=O)Nc1ccnc(C(F)(F)F)c1` [Example 32, 2-cyano-5-(methylsulfonyl)-N-(2-(trifluoromethyl)py-ridin-4-yl)isonicotinamide], for which the concentration giving a half-maximal response (EC50) in experiment [1] and in experiment [3] was 100 to 1000 nM in each case. Moreover, the inhibition at 0.1 µM in experiment [2] stood at 80%.
Turning to `N#Cc1ccc(S(=O)(=O)CC(F)(F)F)c(C(=O)Nc2cc(F)cc(F)c2)c1` [Example 33, 5-cyano-N-(3,5-difluorophenyl)-2-((2,2,2-trifluoroethyl)sulfonyl)benzamide], the half-maximal effective concentration (EC50) in experiment [1] and in experiment [3] was 1000 to 10000 nM throughout. The inhibition at 0.1 µM in experiment [2] is 19%.
Regarding `N#Cc1cc(C(=O)Nc2cc(F)cc(F)c2)c(S(=O)(=O)CC(F)(F)F)cn1` [Example 34, 2-cyano-N-(3,5-difluorophenyl)-5-((2,2,2-trifluoroethyl)sulfonyl) isonicotinamide], the EC50 in experiment [1] and in experiment [3] was 100 to 1000 nM each time. For the same molecule, the inhibition at 0.1 µM in experiment [2] worked out at 59%.
